The values below come from patent US10905646B2, “Thermoplastic polyurethane film for delivery of active agents to skin surfaces” (Lubrizol Advanced Materials, Inc., priority 2014, dated 2021).

Data set [1] in a line: Concentration of active in wet polymer K after soaking, by HPLC. It is filed as physicochemical. As to conditions: replicate samples. As for the experimental part: The sample is placed in approximately 5 mL of soaking solution (TABLE 17) and suspended for 30 minutes in the solution. The sample is periodically checked to ensure it remains totally immersed in the solution. At the end of soaking time, the sample is removed and reweighed (final sample diameter, about 2.1 cm). The concentration of caffeine in the wet polymer sample is measured by HPLC and is shown in TABLE 18 (HPLC: Shimadzu Scientific Prominence System; Column: […].: 250×4.6 mm; Carrier Phase: A: Water, B: Methanol (65:35 v/v); Oven Temperature: Room Temperature (approx. 22° C.); Flow Rate: 1 mL/min.; UV detection: 254 nm). […] At the conclusion of the 30 min. soaking period the sample is removed from the dimethylmethoxy chromanyl palmitate solution and re-weighed (TABLE 20). The final sample diameter is about 2.0 cm. […] At the conclusion of the 30 min. soaking period the sample is removed from the arbutin solution and re-weighed. The final sample diameter is about 2.2 cm. […] (TABLE 23) and suspended for 90 minutes in the solution. […] At the conclusion of the 90 min. soaking period the sample is removed from the acetyl hexapeptide-37 solution and re-weighed. The final sample diameter is about 2.2 cm. […] (TABLE 25) and suspended for 90 minutes in the acetyl hexapeptide-8 solution. […] At the end of the 90 minute soaking time, the square is removed and weighed again (final piece diameter: 2.2 cm). The same study is performed with a lower concentration of peptide, as follows. […] At the end of the soaking time, the square is removed from the low concentration acetyl hexapeptide-8 solution and weighed again (final piece diameter: 2.2 cm).

A short description of data set [2]: Percutaneous absorption study on pig skin, Franz diffusion cell. It is filed as in vitro ADME, domestic pigs (Sus domesticus). As to conditions: Franz cell receptor fluid (PBS), HPLC.
Protocol: A percutaneous absorption study is performed on pig skin test samples obtained from the back of domestic pigs (Sus domesticus) weighing about 30 kg. The pig skin is dermatomed to a thickness of about 500 microns and then test discs having a diameter of 2.5 cm are sectioned from the dermatomed skin. […] The loaded films are applied to the sample discs (in contact with the stratum corneum) for 30 minutes. Different layers of the film treated skin (stratum corneum, epidermis and dermis) are separated, assayed and analyzed for the quantity of caffeine and permeation into the respective layers of the skin. The quantitative analysis for caffeine and is conducted by HPLC utilizing the instrumentation identified above.
Additionally, the same solutions utilized to load the polymer films are topically applied across the entire surface of the stratum corneum of comparative pig skin disc samples prepared as above. […]
The lower chamber contained the receptor fluid (PBS solution, Sigma-Aldrich Co. LLC). The integrity of the skin is evaluated by measuring the transepidermal water loss (TEWL). […] The collected receptor fluid is analyzed by HPLC as described above.
The quantities of caffeine that permeated into each of the three different layers of the skin samples (stratum corneum, epidermis and dermis) are collected separately as follows. […]

Several values for one entry are separate records, joined by “and”; a condition that tells them apart may be missing. Identical values can stand only once.

Consider Acetyl Hexapeptide-8, for which the “% Acetyl Hexapeptide-8 (w/w), vs. wet polymer” value in data set [1] (polymer K soaked 90 minutes in a 1/5000 dilution with water of the 0.05 % soaking solution) was 0.0017 % (w/w) and 0.0019 % (w/w); in data set [1] (polymer K soaked 90 minutes in soaking solution with 0.05 % acetyl hexapeptide-8), 0.0425 % (w/w) and 0.0420 % (w/w) and 0.0418 % (w/w) and 0.0434 % (w/w). Consider `Cn1c(=O)c2c(ncn2C)n(C)c1=O` [caffeine], for which the “% caffeine (w/w), vs. wet polymer” value in data set [1] (film of polymer K soaked 30 min in soaking solution with 2 % caffeine, pH 4) was 2.60 % (w/w) and 2.57 % (w/w) and 2.59 % (w/w) and 2.64 % (w/w) and 2.63 % (w/w) (2×). Moreover, the “Caffeine in the collected receptor fluid” value in data set [2] is listed as “No caffeine was present”. As for `CCCCCCCCCCCCCCCC(=O)Oc1cc2c(cc1OC)OC(C)(C)CC2` [dimethylmethoxy chromanyl palmitate], in data set [1] (film of Polymer K soaked 30 minutes in liposome soaking solution with 2 % dimethylmethoxy chromanyl palmitate), the “% Dimethylmethoxy chromanyl palmitate (w/w), vs. wet polymer” value is 1.074 % (w/w) and 0.964 % (w/w) and 1.009 % (w/w) and 0.994 % (w/w) and 0.888 % (w/w). For the compound `OC[C@H]1O[C@@H](Oc2ccc(O)cc2)[C@H](O)[C@@H](O)[C@@H]1O` [Arbutin, (2R,3S,4S,5R,6S)-2Hydroxymethyl-6(4hydroxyphenoxy)oxane-3,4,5triol], the “% Arbutin (w/w), vs. wet polymer” value in data set [1] (film of polymer K soaked 30 minutes in soaking solution with 4 % arbutin, pH 5.5) is 1.42 % (w/w) and 1.61 % (w/w) (2×) and 1.45 % (w/w) and 1.78 % (w/w).
